Reference: PubChem BioAssay (NCI)
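A five-concentration, 48-hour dose response in 96-well plates underlies each endpoint, interpolated linearly between surrounding concentrations. GI50: concentration for 50% inhibition of growth. TGI denotes the concentration required for complete inhibition of growth.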

Columns and labels:
Test in all cases: inhibition of tumour cell growth, NCI panel, 48 h
CAKI-1 renal = tested on: CAKI-1 renal
NCI-H460 lung = tested on: NCI-H460 lung
M14 melanoma = tested on: M14 melanoma
K-562 leukemia = tested on: K-562 leukemia
HL-60(TB) leukemia = tested on: HL-60(TB) leukemia
RXF 393 renal = tested on: RXF 393 renal
UACC-257 melanoma = tested on: UACC-257 melanoma
NCI-H23 lung = tested on: NCI-H23 lung
KM12 colon = tested on: KM12 colon
SK-MEL-5 melanoma = tested on: SK-MEL-5 melanoma

Row | SMILES | GI50 (CAKI-1 renal) [µM] | TGI (CAKI-1 renal) [µM] | GI50 (NCI-H460 lung) [µM] | TGI (NCI-H460 lung) [µM] | GI50 (M14 melanoma) [µM] | TGI (M14 melanoma) [µM] | GI50 (K-562 leukemia) [µM] | TGI (K-562 leukemia) [µM] | GI50 (HL-60(TB) leukemia) [µM] | TGI (HL-60(TB) leukemia) [µM] | GI50 (RXF 393 renal) [µM] | TGI (RXF 393 renal) [µM] | GI50 (UACC-257 melanoma) [µM] | TGI (UACC-257 melanoma) [µM] | GI50 (NCI-H23 lung) [µM] | TGI (NCI-H23 lung) [µM] | GI50 (KM12 colon) [µM] | TGI (KM12 colon) [µM] | GI50 (SK-MEL-5 melanoma) [µM] | TGI (SK-MEL-5 melanoma) [µM]
1 | CN(C)c1ccc(N=C(C#N)c2nc(N)nc(N3CCOCC3)n2)cc1 | 39.9 | > 100 | 48.1 | > 100 | > 100 | > 100 | 62.1 | > 100 | 70.4 | > 100 | 27.5 | 70.1 | > 100 | > 100 | > 100 | > 100 | 53 | > 100 | 40.4 | > 100
2 | CCN1CCC(O)(c2ccccc2)C(C(=O)c2ccccc2)C1 (centres undefined) | – | 19.3 | – | > 100 | – | 34.4 | – | > 66 | – | 46.8 | – | 29.7 | – | 46.5 | – | 97.5 | – | > 100 | – | > 100
3 | Nc1cc2c3c(cccc3c1)C(=O)N(CCN1CCN(CCN3C(=O)c4cccc5cc(N)cc(c45)C3=O)CC1)C2=O | – | > 100 | – | > 100 | – | > 100 | – | > 100 | – | > 100 | – | > 100 | – | > 100 | – | > 100 | – | > 100 | – | > 100
4 | CC1(C)OCC(C2OC(On3nnc4ccc(Cl)cc43)C3OC(C)(C)OC23)O1 (centres undefined) | – | > 100 | – | > 100 | – | > 100 | – | > 100 | – | > 100 | – | > 100 | – | > 100 | – | > 100 | – | > 100 | – | > 100
5 | N/C(=N\N=C=C1C(=O)Nc2ccc(F)cc21)NO | – | > 100 | – | > 100 | – | > 100 | – | > 100 | – | > 100 | – | > 100 | – | > 100 | – | > 100 | – | > 100 | – | > 100
6 | COC(=O)C1(C)CCc2c(ccc3ccccc23)C1=O (centres undefined) | – | 41.6 | – | > 100 | – | 83.8 | – | > 100 | – | > 100 | – | 67.5 | – | 55.2 | – | > 100 | – | 70.4 | – | 35.9
7 | O=C1c2cccnc2-c2nc(-c3ccccc3)cc3c2c1nc1ccccc13 | 6.67 | 17.5 | 0.844 | 3.74 | 3.57 | 15.7 | 0.658 | 3.91 | 1.12 | 3.01 | 16 | 32.3 | 0.835 | 8.08 | 1.73 | 7.48 | 4.61 | 16.1 | 1.27 | 3.88
8 | CCOC(=O)/C(=C/c1c(-c2ccccc2)[nH]c2ccccc12)C(=O)c1ccc(Cl)cc1 | 4.12 | > 100 | 3.03 | 10.3 | 3.07 | > 100 | 3.42 | > 100 | 1.99 | 7.59 | 17.4 | > 100 | 6.49 | > 100 | 3.47 | > 100 | 3.29 | > 100 | 1.78 | 4.1
9 | C=C1C(=O)C23C(O)C1CCC2C12CO[C@]3(O)[C@@H](O)C1C(C)(C)CCC2O (some centres undefined) | – | 28.5 | – | 29.2 | – | 24.1 | – | > 100 | – | > 100 | – | 20.6 | – | 23.8 | – | 43.4 | – | 31.7 | – | 37
10 | C/C(=N\NC(=S)Nc1ccccc1)c1ccccn1 | 0.185 | 8.74 | 0.0692 | 3.74 | 0.0624 | 2.17 | < 0.01 | 6.93 | < 0.0114 | 0.0781 | 0.588 | 2.64 | 0.032 | 0.384 | 0.0191 | 5.22 | 0.143 | 2.29 | 0.199 | 1.56
11 | CCN(CC)c1ccc(/C=C/C2=[N+](C)c3ccccc3C2(C)C)cc1 | 0.852 | 12.6 | 0.312 | 15.8 | 0.581 | 19.5 | 3.44 | > 100 | 0.0906 | > 100 | 0.75 | 16.5 | 0.375 | 14.6 | 0.181 | 25.8 | 0.28 | 1.83 | 0.28 | 1.31
12 | NCCCNCCCNc1nc2ccccc2c2[nH]c3ccccc3c12 | 0.458 | 2.31 | 0.0399 | 1.74 | 0.672 | 2.35 | 0.0578 | – | 0.0375 | 1.3 | 0.313 | 2.13 | 2.31 | 6.2 | 0.0936 | 1.06 | 0.684 | 3.93 | 0.362 | 1.81
13 | COC(=O)Oc1nn(C(=O)OC)c(=O)c2ccccc12 (tested in a mixture with another compound) | – | > 100 | – | > 100 | – | > 100 | – | > 100 | – | > 100 | – | > 100 | – | > 100 | – | > 100 | – | > 100 | – | > 100
